Results: ChEMBL document CHEMBL5226335, “Efforts towards the inhibitor design for New Delhi metallo-beta-lactamase (NDM-1)” (Eur J Med Chem, 2021)
Converted amounts (≈) assume the structure as drawn.

tested on: not listed separately; assay: Inhibition of NDM-1 (unknown origin); parameters: species or system Bacteria; conditions: not given

Question: Which IC50 does the source give for `O=C(O)c1ccc(O)c(CP(=O)(O)O)n1` here?
Answer: 0.322 µM

Question: With `CC1(C)S[C@@H]2CS[C@@H](CS)N2[C@H]1C(=O)O` as the compound, how does the IC50 read?
Answer: 180 µM

Question: For `CC(C)c1cc2c(c(O)c1O)[C@@]1(C(=O)O)CCCC(C)(C)[C@@H]1CC2` [CARNOSIC ACID], which IC50 is on record?
Answer: 27.1 µM

Question: Which IC50 does the source give for `O=C(O)CSC(=O)C(Cc1c[nH]c2ccccc12)NC(=O)Cc1ccccc1` (stereo not drawn) here?
Answer: 27.9 µM

Question: For `O=C(O)C(=O)CBr` [BROMOPYRUVATE], which IC50 is on record?
Answer: 2.57 µM

Question: Which IC50 does the source give for `O=C(O)c1ccc(N(Cc2ccccc2)C(=O)c2cccs2)c(CP(=O)(O)O)n1` here?
Answer: 0.306 µM

Question: Which IC50 does the source give for `O=C(O)c1cc(-c2ccccc2O)cc(C(=O)O)n1` here?
Answer: 0.13 µM

Question: For `O=C(Cc1ccccc1)N[C@@H]1C(=O)N2C(C(=O)O)=C(CSc3nnc(-c4ccc(-n5[se]c6ccccc6c5=O)cc4)[nH]3)CSC12` (stereo partly drawn), which IC50 is on record?
Answer: 2.93 µM

Question: With `CC(=O)NC1=C(S)/C(=C\S)NC1=O` as the compound, how does the IC50 read?
Answer: 0.11 µM

Question: Which IC50 does the source give for `Nc1cccc(-c2cc(C(=O)O)nc(C(=O)O)c2)c1` here?
Answer: 0.08 µM

Question: For `O=C(O)c1nccn1Cc1ccccc1`, which IC50 is on record?
Answer: 63.4 µM

Question: Which pIC50 does the source give for `Cc1cccc(-c2cc[nH]c2C(=O)O)c1` here?
Answer: 4.2

Question: Which IC50 does the source give for `CC1=C(c2ccc(Cl)cc2)N(/C(C)=N/c2ccc(Br)cc2)C(c2ccc(Cl)cc2)N1c1ccc(Br)cc1` (stereo not drawn) here?
Answer: 600 µM

Question: For `COc1cccc2sc(Nc3nnc(-c4cccs4)o3)nc12`, which IC50 is on record?
Answer: 0.692 µM

Question: Which IC50 does the source give for `O=C(O)c1cccc(C(=O)O)n1` [DIPICOLINIC ACID] here?
Answer: 1.13 µM

Question: Which IC50 does the source give for `CCCCC(=O)NC(Cc1c[nH]c2ccccc12)C(=O)SCC(=O)O` (stereo not drawn) here?
Answer: 54.9 µM

Question: With `Cc1cc(-c2ccccc2)c(C(=O)O)[nH]1` as the compound, how does the pIC50 read?
Answer: 4.5

Question: With `C[C@@H](CS)C(=O)N[C@@H](C(=O)O)c1ccc2cc[nH]c2c1` as the compound, how does the IC50 read?
Answer: 64.8 µM

Question: For `CC(=O)C1CSC(C(=O)O)N1` (stereo not drawn), which IC50 is on record?
Answer: 3.45 µM

Question: Which IC50 does the source give for `CC1=C(c2ccccc2)N(/C(C)=N/c2ccc(Cl)cc2)C(c2ccccc2)N1c1ccc(Cl)cc1` (stereo not drawn) here?
Answer: 900 µM

Question: With `O=C(O)CSC(=O)C(Cc1c[nH]c2ccccc12)NC(=O)Cc1ccc(-c2ccccc2)cc1` (stereo not drawn) as the compound, how does the IC50 read?
Answer: 16.6 µM

Question: For `CCCCC(=O)NC(CCSC)C(=O)SCC(=O)O` (stereo not drawn), which IC50 is on record?
Answer: 37.7 µM

Question: For `CCCCC(=O)NC(Cc1ccccc1)C(=O)SCC(=O)O` (stereo not drawn), which IC50 is on record?
Answer: 28.6 µM

Question: Which IC50 does the source give for `Oc1c(C(Nc2ccc(F)cc2)c2cncs2)ccc2cccnc12` (stereo not drawn) here?
Answer: 10.3 µM

Question: Which IC50 does the source give for `C[C@H](CS)C(=O)N[C@@H](C(=O)O)c1ccc2cc[nH]c2c1` here?
Answer: 24.8 µM

Question: For `CSCCC(NC(=O)Cc1ccccc1)C(=O)SCC(=O)O` (stereo not drawn), which IC50 is on record?
Answer: 19.7 µM

Question: With `O=C(Nc1cccc(-c2cc(C(=O)O)nc(C(=O)O)c2)c1)c1ccccc1` as the compound, how does the IC50 read?
Answer: 0.13 µM

Question: Which IC50 does the source give for `O=C(O)c1nccn1Cc1ccc(O)cc1` here?
Answer: 118 µM

Question: Which IC50 does the source give for `O=C(O)c1cccc(CP(=O)(O)O)n1` here?
Answer: 0.374 µM

Question: With `CN(C)c1ccc(-c2cc(C(=O)O)nc(C(=O)O)c2)cc1` as the compound, how does the IC50 read?
Answer: 0.19 µM

Question: Which IC50 does the source give for `CCCC/C(=N\Nc1cccc2ccccc12)C(=O)O` here?
Answer: 28.1 µM

Question: With `CCN(CC)C(=S)SSC(=S)N(CC)CC` [DISULFIRAM] as the compound, how does the IC50 read?
Answer: 0.13 µM

Question: For `O=C(O)[C@@H]1CS[C@H]2CS[C@H](CS)N21`, which IC50 is on record?
Answer: 23 µM

Question: For `Oc1c(C(Nc2ccccn2)c2cccs2)ccc2cccnc12` (stereo not drawn), which IC50 is on record?
Answer: 0.463 µM

Question: For `CCC/C(=N\Nc1cccc2cccnc12)C(=O)O`, which IC50 is on record?
Answer: 68.2 µM

Question: With `O=C(O)[C@H]1CS[C@@H]2CS[C@@H](CS)N12` as the compound, how does the IC50 read?
Answer: 109 µM

Question: With `CC1(C)S[C@H]2CS[C@H](CS)N2[C@@H]1C(=O)O` as the compound, how does the IC50 read?
Answer: 200 µM

Question: With `CCCC/C(=N\Nc1cccc2cccnc12)C(=O)O` as the compound, how does the IC50 read?
Answer: 82.3 µM

Question: With `O=c1c2ccccc2sn1-c1ccccc1` as the compound, how does the IC50 read?
Answer: 0.16 µM

Question: Which IC50 does the source give for `O=C(O)CSC(=O)C(Cc1ccccc1)NC(=O)Cc1ccc(-c2ccccc2)cc1` (stereo not drawn) here?
Answer: 44 µM

Question: With `NCc1ccc(Cn2ccnc2C(=O)O)cc1` as the compound, how does the IC50 read?
Answer: 165 µM

Question: With `CC1=C(c2ccc(Cl)cc2)N(/C(C)=N/c2ccc(Cl)cc2)C(c2ccc(Cl)cc2)N1c1ccc(Br)cc1` (stereo not drawn) as the compound, how does the IC50 read?
Answer: 400 µM

molecular target: not listed separately; assay: Binding affinity to NDM-1 (unknown origin) assessed as inhibition constant; parameters: species or system Bacteria; conditions: not given

Question: With `N[C@@H](C(=O)N[C@@H]1C(=O)N2C(C(=O)O)=C(Cl)CS[C@H]12)c1ccccc1` [CEFACLOR ANHYDROUS] as the compound, how does the Ki read?
Answer: 2300 µM

Question: For `O=C(CSc1nnc(-c2ccccc2O)s1)Nc1nc2ccccc2s1`, which Ki is on record?
Answer: 0.81 µM

Question: For `O=c1c2ccccc2[se]n1-c1ccccc1` [EBSELEN], which Ki is on record?
Answer: 0.38 µM

Question: With `O=C(NOC(=O)Oc1ccccc1)OCc1ccccc1` as the compound, how does the Ki read?
Answer: 140 µM

Question: For `O=C(CSc1nnc(-c2ccncc2)o1)Nc1ccccc1`, which Ki is on record?
Answer: 0.23 µM

Question: For `O=C(O)c1ncsc1NS(=O)(=O)c1cccnc1`, which Ki is on record?
Answer: 0.29 µM

Question: With `O=C(CSc1nnc(-c2ccccc2O)[nH]1)Nc1nc2ccccc2s1` as the compound, how does the Ki read?
Answer: 0.35 µM

Question: Which Ki does the source give for `O=C(CSc1nnc(-c2ccncc2)s1)Nc1ccccc1` here?
Answer: 1.2 µM

Question: With `O=Cc1coc2ccccc2c1=O` as the compound, how does the Ki read?
Answer: 0.58 µM

Question: With `O=C(CSc1nnc(-c2ccccc2O)s1)Nc1ccccc1` as the compound, how does the Ki read?
Answer: 0.64 µM

Question: With `O=C(CSc1nnc(-c2ccccc2O)o1)Nc1ccccc1` as the compound, how does the Ki read?
Answer: 0.6 µM

Question: With `O=C(CSc1n[nH]c(-c2ccncc2)n1)Nc1ccccc1` as the compound, how does the Ki read?
Answer: 0.42 µM

Question: Which Ki does the source give for `O=C(CSc1nnc(-c2ccccc2O)[nH]1)Nc1ccccc1` here?
Answer: 0.43 µM

tested on: Klebsiella pneumoniae; assay: Antibacterial activity against Klebsiella pneumoniae N11-2218 expressing NDM-1infected in mouse assessed as survival rate at 10 mg/kg,sc measured after 5 days; type: functional; conditions: N11-2218, 120 h, time 5 day

Question: Which survival at 10 mg/kg does the source give for `COc1cc(/C=C/c2ccc(O)cc2)cc(OC)c1` [PTEROSTILBENE] here?
Answer: 52%

Question: Which survival at 10 mg/kg does the source give for `N[C@H](CN[C@H](CN[C@@H](CC(=O)O)C(=O)O)C(=O)O)C(=O)O` here?
Answer: 95%

tested on: Escherichia coli; assay: Antibacterial activity against Escherichia coli expressing NDM-1; type: functional; conditions: not given

Question: For `CCN(CC)C(=S)SSC(=S)N(CC)CC` [DISULFIRAM], which MIC is on record?
Answer: 16 µg/mL (≈ 54 µM)
